# Measurements published in patent US9611263B2, “Compounds that modulate intracellular calcium” (CALCIMEDICA, INC., priority 2013, dated 2017).
# Read-outs that look alike come from different tables or passages of the source.
# Columns and labels:
# RBL-2H3 cells = experiment: Fluorescence-based assay of store-operated calcium entry in RBL-2H3 cells; format: cell-based, rat; settings: thapsigargin, 50% inhibition of Upslope, read-out: RBL-2H3 (IC50, μmol)
# Protocol: B. Fluorescence-Based Assay of Store-Operated Calcium Entry in RBL-2H3 Cells.
# RBL-2H3 cells are obtained from ATCC and maintained in complete medium with 10% FBS at 37° C./6% CO2.
# The day prior to performing the assay, RBL-2H3 cells are plated in 50 μL of complete medium in a 384 well plate. Cells are grown at 37° C./6% CO2 overnight and grow to 50-60% confluence by the next day. On the assay day, 1.5 μM Fluo-4-AM dye (Invitrogen) in complete medium is added and incubated for 1 hour at RT. Cells are washed twice in Ca^2+-free HBSS buffer and 35 μL Ca^2+-free HBSS buffer is added to each well. 10 μL of a test compound prepared in a Ca^2+-free HBSS solution at 4.5× of the desired concentration is added to a well and incubated for 5 minutes at RT. 10 μL of thapsigargin prepared in a Ca^2+-free HBSS solution at 5.5× of the desired concentration (5.5 uM) is added to each well and incubated for an additional 25 minutes. The initial baseline fluorescence signal is measured with a FLIPR^384 (Molecular Devices) plate reader. 5 μL of 12× calcium in HBSS (12 mM) is added and changes in cellular fluorescence are measured with the FLIPR^384 plate reader. In each well, the change in the fluorescent signal as a function of time due to calcium entry into the cell is determined by calculating the difference between the fluorescent signal measured 7 seconds after calcium addition and the initial baseline fluorescence signal at time zero (t=0). This parameter is designated Upslope. The IC50 value is calculated as the concentration at which 50% of the Upslope is inhibited.
# Orai1/STIM1 = molecular target: T1, Orai1/STIM1 (Homo sapiens, UniProt Q96D31); experiment: Fluorescence-based assay of store-operated calcium entry in Orai1/STIM1 stable cells; format: cell-based; settings: HEK-293 cells stably expressing human STIM1 and Orai1; 50% inhibition of Peak-Basal fluorescence signal; read-out: Orai1/STIM1 (IC50, μmol)
# T1 construct: expressed in transfected cells
# Protocol: A. Fluorescence-Based Assay of Store-Operated Calcium Entry in Orai1/STIM1 Stable Cells.
# Cells stably expressing recombinant human STIM1 and Orai1 are generated by transfecting a human Orai1 expression plasmid (pcDNA3.1-Orai1-cmyc) into HEK-293 cells stably overexpressing human STIM1 (Roos et al. 2005 JCB 169(3): 435-445). Colonies of cells stably expressing both STIM1 and Orai1 proteins are selected and then subcloned by limiting dilution. Cells were cultured at 37° C./6% CO2 in complete medium with 10% FBS and appropriate selection markers.
# The day prior to performing the assay Orai1/STIM1 stable cells are plated in 50 μL of complete medium at 90-95% confluence in a 384 well plate. Cells are grown at 37° C./6% CO2 overnight. On the day of the assay, 1.5 μM fluo-4-AM (Invitrogen) in complete medium is added to the cells, which are then incubated for 1 hour at RT. Cells are washed once in Ca^2+-free HBSS (Hank's buffered saline solution) and 35 μl of Ca^2+-free HBSS is added to each well. Test compounds are added to wells in a 10 μL Ca^2+-free HBSS solution, prepared at 4.5× the desired final concentration, and incubated for 30 minutes at RT. The initial baseline fluorescence signal is then measured with a FLIPR^384 (Molecular Devices) plate reader. Calcium entry is initiated by adding 5 μl of 10× CaCl2 (10 mM) in HBSS, and changes in cellular fluorescence are measured with the FLIPR^384 plate reader. In each well, the magnitude of the fluorescence signal as a result of calcium entry into the cell is determined by calculating the difference between the peak fluorescence signal measured after calcium addition and the initial baseline fluorescence signal (designated Peak-Basal). IC50 values are typically calculated as the concentration that inhibited 50% of the Peak-Basal signal.
# T1 sequence (Q96D31 whole entry): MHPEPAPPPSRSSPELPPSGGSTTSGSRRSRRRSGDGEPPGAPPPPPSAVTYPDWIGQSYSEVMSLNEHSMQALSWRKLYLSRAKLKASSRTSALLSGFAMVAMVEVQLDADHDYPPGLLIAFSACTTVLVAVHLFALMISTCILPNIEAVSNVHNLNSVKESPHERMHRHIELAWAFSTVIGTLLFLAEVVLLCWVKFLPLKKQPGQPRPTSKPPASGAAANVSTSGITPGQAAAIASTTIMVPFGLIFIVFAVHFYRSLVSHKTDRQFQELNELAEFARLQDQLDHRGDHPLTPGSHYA
Compound,"IC50 (RBL-2H3 cells; Rattus norvegicus, RBL-2H3) [nM]",IC50 (Orai1/STIM1) [nM],IC50 (RBL-2H3 cells) [nM]
"O=C(Nc1ccc(-c2cn(-c3nccs3)nc2C2CC2)c(F)c1)c1c(F)cccc1F [Example 41, N-(4-(3-cyclopropyl-1-(thiazol-2-yl)-1H-pyrazol-4-yl)-3-fluorophenyl)-2,6-difluorobenzamide]",< 600,> 1200,
"N-(5-(3-ethyl-1-(thiazol-2-yl)-1H-pyrazol-4-yl)pyrazin-2-yl)-2,3,6-trifluorobenzamide [Example 39]",,600 to 1200,< 600
"CCc1nn(-c2nccs2)cc1-c1ccc(NC(=O)c2c(F)cccc2F)s1 [Example 73, N-(5-(3-ethyl-1-(thiazol-2-yl)-1H-pyrazol-4-yl)thiophen-2-yl)-2,6-difluorobenzamide]",< 600,600 to 1200,
"Cc1ccc(F)c(C(=O)Nc2ccc(-c3cn(-c4ccccc4F)nc3C)cn2)c1F [Example 60, 2,6-difluoro-N-(5-(1-(2-fluorophenyl)-3-methyl-1H-pyrazol-4-yl)pyridin-2-yl)-3-methylbenzamide]",< 600,< 600,
"O=C(Nc1ccc(-c2cn(-c3nccs3)nc2C2CC2)cn1)c1c(F)cccc1F [Example 44, N-(5-(3-cyclopropyl-1-(thiazol-2-yl)-1H-pyrazol-4-yl)pyridin-2-yl)-2,6-difluorobenzamide]",< 600,< 600,
"Cc1nn(-c2nccs2)cc1-c1ccc(NC(=O)c2ccccc2OC(F)F)s1 [Example 72, 2-(difluoromethoxy)-N-(5-(3-methyl-1-(thiazol-2-yl)-1H-pyrazol-4-yl)thiophen-2-yl)benzamide]",> 1200,600 to 1200,
"Cc1nn(-c2ccccc2F)cc1-c1ccc(NC(=O)c2ccccc2F)nc1 [Example 58, 2-fluoro-N-(5-(1-(2-fluorophenyl)-3-methyl-1H-pyrazol-4-yl)pyridin-2-yl)benzamide]",> 1200,600 to 1200,
"CCc1nn(-c2nccs2)cc1-c1ccc(NC(=O)c2c(F)cc(F)cc2F)cc1F [Example 33, N-(4-(3-ethyl-1-(thiazol-2-yl)-1H-pyrazol-4-yl)-3-fluorophenyl)-2,4,6-trifluorobenzamide]",< 600,> 1200,
"O=C(Nc1ccc(-c2cn(-c3nccs3)nc2C2CC2)c(F)c1)c1c(F)cc(F)cc1F [Example 43, N-(4-(3-cyclopropyl-1-(thiazol-2-yl)-1H-pyrazol-4-yl)-3-fluorophenyl)-2,4,6-trifluorobenzamide]",< 600,> 1200,
"Cc1nn(-c2ccccc2F)cc1-c1ccc(NC(=O)c2ccccc2OC(F)F)nc1 [Example 61, 2-(difluoromethoxy)-N-(5-(1-(2-fluorophenyl)-3-methyl-1H-pyrazol-4-yl)pyridin-2-yl)benzamide]",> 1200,> 1200,
"Cc1nn(-c2nccs2)cc1-c1ccc(NC(=O)c2ccccc2OC(F)F)cc1F [Example 17, 2-(difluoromethoxy)-N-(3-fluoro-4-(3-methyl-1-(thiazol-2-yl)-1H-pyrazol-4-yl)phenyl)benzamide]",< 600,600 to 1200,
"Cc1nn(-c2cc(F)ccc2F)cc1-c1ccc(NC(=O)c2c(F)ccc(F)c2F)nc1 [Example 56, N-(5-(1-(2,5-difluorophenyl)-3-methyl-1H-pyrazol-4-yl)pyridin-2-yl)-2,3,6-trifluorobenzamide]",> 1200,< 600,
"Cc1nn(-c2ccccc2F)cc1-c1ccc(NC(=O)c2c(F)cccc2F)nc1 [Example 57, 2,6-difluoro-N-(5-(1-(2-fluorophenyl)-3-methyl-1H-pyrazol-4-yl)pyridin-2-yl)benzamide]",< 600,< 600,
"CCc1nn(-c2nccs2)cc1-c1nnc(NC(=O)c2c(F)ccc(F)c2F)s1 [Example 68, N-(5-(3-ethyl-1-(thiazol-2-yl)-1H-pyrazol-4-yl)-1,3,4-thiadiazol-2-yl)-2,3,6-trifluorobenzamide]",< 600,600 to 1200,
"Cc1nn(-c2nccs2)cc1-c1ccc(NC(=O)c2c(F)ccc(F)c2F)cc1 [Example 4, 2,3,6-trifluoro-N-(4-(3-methyl-1-(thiazol-2-yl)-1H-pyrazol-4-yl)phenyl)benzamide]",< 600,< 600,
"O=C(Nc1ccc(-c2cn(-c3nccs3)nc2C(F)(F)F)cn1)c1c(F)ccc(F)c1F [Example 53, 2,3,6-trifluoro-N-(5-(1-(thiazol-2-yl)-3-(trifluoromethyl)-1H-pyrazol-4-yl)pyridin-2-yl)benzamide]",< 600,600 to 1200,
"O=C(Nc1ccc(-c2cn(-c3nccs3)nc2C2CC2)cn1)c1c(F)ccc(F)c1F [Example 45, N-(5-(3-cyclopropyl-1-(thiazol-2-yl)-1H-pyrazol-4-yl)pyridin-2-yl)-2,3,6-trifluorobenzamide]",< 600,600 to 1200,
"Cc1cnc(-n2cc(-c3ccc(NC(=O)c4c(F)ccc(F)c4F)nc3)c(C)n2)s1 [Example 64, 2,3,6-trifluoro-N-(5-(3-methyl-1-(5-methylthiazol-2-yl)-1H-pyrazol-4-yl)pyridin-2-yl)benzamide]",< 600,< 600,
"CCc1nn(-c2nccs2)cc1-c1ccc(NC(=O)c2c(F)cccc2F)nc1 [Example 35, N-(5-(3-ethyl-1-(thiazol-2-yl)-1H-pyrazol-4-yl)pyridin-2-yl)-2,6-difluorobenzamide]",< 600,< 600,
"Cc1ccc(F)c(C(=O)Nc2cnc(-c3cn(-c4nccs4)nc3C)cn2)c1F [Example 30, 2,6-difluoro-3-methyl-N-(5-(3-methyl-1-(thiazol-2-yl)-1H-pyrazol-4-yl)pyrazin-2-yl)benzamide]",< 600,600 to 1200,
"O=C(Nc1ccc(-c2cn(-c3nccs3)nc2C2CC2)cn1)c1c(F)cc(F)cc1F [Example 46, N-(5-(3-cyclopropyl-1-(thiazol-2-yl)-1H-pyrazol-4-yl)pyridin-2-yl)-2,4,6-trifluorobenzamide]",< 600,600 to 1200,
"Cc1nn(-c2nccs2)cc1-c1ccc(NC(=O)c2c(F)cccc2F)s1 [Example 69, 2,6-difluoro-N-(5-(3-methyl-1-(thiazol-2-yl)-1H-pyrazol-4-yl)thiophen-2-yl)benzamide]",< 600,< 600,
"Cc1nn(-c2nccs2)cc1-c1ccc(NC(=O)c2ccccc2OC(F)F)cc1 [Example 5, 2-(difluoromethoxy)-N-(4-(3-methyl-1-(thiazol-2-yl)-1H-pyrazol-4-yl)phenyl)benzamide]",< 600,< 600,
"CCc1nn(-c2nccs2)cc1-c1ccc(NC(=O)c2ccccc2F)s1 [Example 74, N-(5-(3-ethyl-1-(thiazol-2-yl)-1H-pyrazol-4-yl)thiophen-2-yl)-2-fluorobenzamide]",< 600,< 600,
"Cc1nn(-c2nccs2)cc1-c1ccc(NC(=O)c2ccc(F)c(F)c2F)cc1F [Example 15, 2,3,4-trifluoro-N-(3-fluoro-4-(3-methyl-1-(thiazol-2-yl)-1H-pyrazol-4-yl)phenyl)benzamide]",< 600,< 600,
"Cc1nn(-c2nccs2)cc1-c1ccc(NCc2c(F)cccc2F)cc1F [Example 75, N-(2,6-difluorobenzyl)-3-fluoro-4-(3-methyl-1-(thiazol-2-yl)-1H-pyrazol-4-yl)aniline]",< 600,< 600,
"CCc1nn(-c2nccs2)cc1-c1ccc(NC(=O)c2cc(F)nc(F)c2)cc1F [Example 34, N-(4-(3-ethyl-1-(thiazol-2-yl)-1H-pyrazol-4-yl)-3-fluorophenyl)-2,6-difluoroisonicotinamide]",< 600,> 1200,
